Assays:
[1] = test system: natural antibody function; assay: Pig to cynomolgus kidney transplants; format: in vivo; conditions: 6 mg/kg/day, i.v.
Source text: As is discussed herein, contacting the recipient's blood with galactosyl (α1, 3) galactose epitopes can be used to deplete the host of natural antibodies. Other methods for depleting or otherwise inactivating natural antibodies can be used with any of the methods described herein. For example, drugs which inactivate natural antibodies, e.g., deoxyspergualin (DSG) (Bristol), or anti-IgM antibodies, can be administered to the recipient of an allograft or a xenograft. One or more of, DSG (or similar drugs), anti-IgM antibodies, and hemoperfusion, can be used to inactivate recipient natural antibodies in methods of the invention.

[2] = test system: human natural antibodies (IgG, IgM) binding to porcine PBMC; assay: Competitive binding assay, flow cytometry: human natural antibody binding to porcine PBMC; conditions: human serum pre-incubated with competitor at 1 mg/ml
Description: FIG. 1 (Panels A, B, C, D) is a set of graphs which show α1,3Gal/BSA-inhibition of human natural antibody binding to pig cells. Human serum (20 μl) was preincubated with αGal/BSA (Panels A,C) or bovine thyroglobulin (Panels B,D) at concentrations of 1,000 μg/ml (b) or 0.1 μg/ml (c) prior to staining of porcine peripheral blood mononuclear cells (pPBMCs). The negative control (a) consisted of pPBMC plus an equivalent volume of galactosyl α(1, 3) galactose reactive natural antibody-depleted human serum (XNA^−) while the positive control was 20 μl human serum without competitor (d). Following incubation with the human serum, the cells were stained with either anti-human IgG (Panels A,B) or anti-human IgM (Panels C,D).
Human sera were obtained from healthy adult volunteers. Individual samples were isolated and stored at 4° C. for short periods or aliquoted and stored at −70° C. Porcine peripheral blood mononuclear cells (pPBMC) were isolated from heparinized whole blood obtained from an inbred miniature swine herd and resuspended in flow cytometric analysis staining buffer (Hank's Buffered Saline Solution (HBSS), 2.0% fetal calf serum, 0.04% sodium azide (Sigma Chemical Co., St. Louis, Mo.)) to a final concentration of 1×10^7 pPBMC/ml.
Human serum (15 μl) was pre-incubated with serially diluted αGal/BSA, bovine thyroglobulin (Sigma Chemical Co., St. Louis, Mo.) or BSA (Fisher Scientific, Pittsburgh, Pa.) at final concentrations of 1 mg/ml to 1 ng/ml for 90 minutes at 4° C. with gentle rocking. Fifty μl of pPBMC (5×10^5 cells) was incubated with 50 μl of human serum plus competitor for 90 minutes at 4° C. The positive control consisted of staining with human serum alone and the negative control was human serum depleted of natural antibodies (XNA^−). The cells were processed for all subsequent steps in the same way as for direct flow cytometric analysis (DerSimonian, H. M. et al. (1993) J. Exp. Med. 177:1623).

[3] = test system: galactosyl α(1, 3) galactose-reactive natural antibodies in human serum; assay: Competitive ELISA with αGal/BSA or bovine thyroglobulin coated plates; format: binding
Description: In order to facilitate the detection of galactosyl α(1, 3) galactose-reactive antibodies in human serum samples, an ELISA system using αGal/BSA as the antigen was used. αGal/BSA (provided by BioTransplant, Inc.) was used to coat 96 well polystyrene plates (Costar) at a concentration of 10 μg/ml in PBS overnight at 4° C. Plates coated with BSA were included to control for background reactivity to BSA. Wells were blocked for 1-2 hours at room temperature with 1% BSA in TBS (100 mM Tris-HCl, pH 7.5, 0.9% NaCl). All plates were washed three times with 0.1% Tween-20 in TBS (TBS/Tween) using a Skatron plate washer (Skatron Instruments, Inc., Sterling, Va.). Serial dilutions of human serum from a single donor were used as the standard positive controls. XNA^− (see Example 3) was used as the negative control. Samples were aliquoted in triplicate and allowed to incubate at room temperature for 1 hour. After washing three times with TBS/Tween, the plates were incubated with alkaline phosphatase conjugated mouse monoclonal anti-human IgG or IgM antibody (Sigma Chemical Co., St. Louis, Mo.) for 1-2 hours at room temperature in the dark. The plates were washed and developed with Sigma 104 alkaline phosphatase substrate tablets in carbonate buffer (0.203 g MgCl2, 2.2 g Na2CO3, 2.43 g. NaHCO3 in 1 L. water). The amount of colored product was measured at 405 nm using the SLT Lab Instruments 340 ATC ELISA reader. For competitive ELISA, bovine thyroglobulin and αGal/BSA were serially diluted ten-fold in TBS to final concentrations of 1 mg/ml to 1 ng/ml. Equal volumes of human serum and competitor were combined and incubated for 1 hour at 4° C. The competition reactions were then aliquoted to antigen coated plates and incubated for 1 hour at room temperature. The plates were washed and incubated with alkaline phosphatase conjugated mouse monoclonal anti-human IgG or IgM antibody (Sigma Chemical Co., St. Louis, Mo.) for 1 hour at room temperature. The wells were washed and developed with Sigma 104 alkaline phosphatase substrate. All samples were analyzed in triplicate.

[4] = Stability of αGal/BSA in the ELISA system in the presence of human serum; format: physicochemical; conditions: 37° C. for up to 24 hours
Description: To ensure that the galactosyl α(1, 3) galactose epitope was stable under these conditions, experiments were performed to determine if there was any detectable hydrolysis of the galactosyl α(1, 3) galactose carbohydrate moiety in the presence of human serum.

concentration necessary to block binding of αGal-reactive natural antibodies to αGal/BSA ([3]; competitive ELISA, αGal/BSA as antigen)	inhibition of binding of serum natural antibodies to αGal/BSA ([3]; pre-incubation of serum with competitor)	concentration that completely inhibited binding of human IgG and IgM to bovine thyroglobulin ([3]; competitive ELISA, bovine thyroglobulin as antigen) [µg/mL]	Compound	suppression of natural antibody function [1]	decrease in IgG binding to pig cells (median fluorescence intensity) [2] [%]	reduction of IgM binding to pig cells (median fluorescence intensity) [2] [%]	stability (hydrolysis of the galactosyl α(1, 3) galactose moiety) in the ELISA system [4]
			N=C(N)NCCCCCCC(=O)NC(O)C(=O)NCCCCNCCCN (stereo not drawn) [DSG, deoxyspergualin]	useful in suppressing natural antibody function			
100-1,000 μg/ml	completely inhibited		Bovine thyroglobulin: galactosyl α(1, 3) galactose containing molecule, estimated eleven naturally occurring residues, 300 kD (Sigma)		79	66	
		1	αGal/BSA: synthetic conjugate with fifteen to thirty-nine αGal moieties per BSA molecule, 70 kD		84	94	stable
